Data as given in PMC10470313, “Developing a peptide to disrupt cohesin head domain interactions” (iScience, 2023).
Where no end group is shown, it is not given here.

Key:
[1] = system: yME-961 strain yeast cells; experiment: Sister chromatid cohesion GFP dot assay; type: cell-based; conditions: peptide 1 h at G1, release, G2/M arrest
Protocol: Figure 4 CIP3 inhibits sister chromatid cohesion and chromosome condensation (A) Flowchart outlining the sister chromatid cohesion assay. (B) yME-961 strain cells were grown and treated with peptides, as shown in A. Premature sister chromatid separation was determined by counting the number of cells showing two GFP dots. At least 300 cells were counted in 3 independent experiments. ∗∗p < 0.001. (C) Cells were grown to mid-log phase. The culture was divided into two flasks, one being treated with CIP3-TAT. Condensation was determined in cells at the G2/M phase by 2-photon microscopy. ∗∗p < 0.001. (D) yKS-008 strain (Smc3-V5) cells were grown and treated with CIP3-TAT peptide, as shown in A. Cells were processed for ChIP with antibodies against V5.
The potential of CIP3-TAT to inhibit cohesion activity was explored by analyzing sister chromatid cohesion in cells arrested at the G2/M. Inserted in the LYS4 locus were LacO arrays, which bind LacI-GFP. In unperturbed cells arrested at the G2/M phase of the cell cycle, cohesin tethers the sister chromatids visualized under the microscope as a single GFP dot. When cohesin is inactivated, the sister chromatids fall apart and are seen as two distinctive GFP dots. yME-961 strain cells were grown to mid-log phase and arrested at the G1 phase of the cell cycle. […]

[2] = system: yeast cells, G2/M; experiment: Chromosome condensation by two-photon microscopy; type: cell-based; conditions: nuclear-integrated density divided by circumference, at least 40 nuclei
Protocol: Chromosome condensation depends on cohesin. However, this cohesin function can be separated from sister chromatid cohesion activity.[45]^,[46] We tested this possibility by analyzing chromatin in G2/M cells via two-photon microscopy.[47]^,[48] Cells were grown and treated as before.
The method is described in.[47]^,[48] Briefly, cells were grown to mid-log phase. Two-photon microscopy of live cells was performed with the LSM780 (Zeiss) inverted confocal microscope, using the Chameleon Vision II (Coherent) multiphoton laser (3 W, pulse width 140 fs at peak, repetition rate 80 MHz, tuning range 680-1080 nm, excitation 768 nm/image collection 512 nm). Slides were visualized with X63 N/A 1.4 objective lenses. Cells in G2/M were selected based on their morphology. Images were analyzed using Image J processing software. The condensation level is represented by the division of the nuclear-integrated density by its circumference. The significance between conditions was determined by using Student's t-test.

Q: For KRFKDMEYLSGGEKTGGYGRKKRRQRRR [CIP3-TAT], which “sister chromatid cohesion level” value [1] is on record?
A: precocious separation of the sister chromatids

Q: And the “cells with precocious separation of sister chromatids (two GFP dots)” value ([1]; LacO at LYS4, at least 300 cells in 3 independent experiments)?
A: approximately 80%

Q: What about the “chromatin condensation” value [2] of the same sequence?
A: chromatin was decondensed in comparison with the untreated cells
